Assay results published in ChEMBL document CHEMBL4266059, “Synthesis of Cyanoenone-Modified Diterpenoid Analogs as Novel Bmi-1-Mediated Antitumor Agents” (ACS Med Chem Lett, 2018).
Active and inactive are the calls of the source. The rule behind the calls is not given here.

System: not listed separately
Experiment: Selectivity index, ratio of IC50 for HAF to IC50 for human HT-29 cells
Format: toxicity
Settings: HAF cells versus HT-29 cells, read-out: Ratio IC50

Structure (SMILES)	selectivity ratio
COc1cc2c(cc1C(=O)Nc1ccc(OC(F)(F)F)cc1)CC[C@H]1C(C)(C)C(=O)C(C#N)=C[C@]21C	5.4 to 10.7
COc1cc2c(cc1C(=O)NNc1ccc(OC(F)(F)F)cc1)CC[C@H]1C(C)(C)C(=O)C(C#N)=C[C@]21C	2.8 to 5
COC(=O)[C@]12CCC(C)(C)C[C@H]1[C@H]1C(=O)C=C3[C@@]4(C)C=C(C#N)C(=O)C(C)(C)[C@@H]4CC[C@@]3(C)[C@]1(C)CC2 [BARDOXOLONE METHYL]	7.2 to 8.4

System: HCT-8
Experiment: Antiproliferative activity against human HCT8 cells after 72 hrs by SRB assay
Format: functional, cell-based
Settings: HCT-8, 72 h

IC50	Structure (SMILES)
600 nM	COc1cc2c(cc1C(=O)Nc1ccc(OC(F)(F)F)cc1)CC[C@H]1C(C)(C)C(=O)C(C#N)=C[C@]21C
1310 nM	COc1cc2c(cc1C(=O)NNc1ccc(OC(F)(F)F)cc1)CC[C@H]1C(C)(C)C(=O)C(C#N)=C[C@]21C
290 nM	COC(=O)[C@]12CCC(C)(C)C[C@H]1[C@H]1C(=O)C=C3[C@@]4(C)C=C(C#N)C(=O)C(C)(C)[C@@H]4CC[C@@]3(C)[C@]1(C)CC2 [BARDOXOLONE METHYL]

System: HT-29
Experiment: Antiproliferative activity against human HT-29 cells after 72 hrs by SRB assay
Format: functional, cell-based
Settings: HT-29, 72 h

IC50	Structure (SMILES)
540 nM	COc1cc2c(cc1C(=O)Nc1ccc(OC(F)(F)F)cc1)CC[C@H]1C(C)(C)C(=O)C(C#N)=C[C@]21C
1620 nM	COc1cc2c(cc1C(=O)NNc1ccc(OC(F)(F)F)cc1)CC[C@H]1C(C)(C)C(=O)C(C#N)=C[C@]21C
280 nM	COC(=O)[C@]12CCC(C)(C)C[C@H]1[C@H]1C(=O)C=C3[C@@]4(C)C=C(C#N)C(=O)C(C)(C)[C@@H]4CC[C@@]3(C)[C@]1(C)CC2 [BARDOXOLONE METHYL]

System: HCT-116
Experiment: Inhibition of Bmi1 protein expression in human HCT116 cells after 8 hrs by Western blot analysis
Format: functional, cell-based
Settings: not given

Structure (SMILES)	inhibition
COc1cc2c(cc1C(=O)Nc1ccc(C(C)=O)cc1)CC[C@H]1C(C)(C)C(=O)C(C#N)=C[C@]21C	Active
COC(=O)[C@]12CCC(C)(C)C[C@H]1[C@H]1C(=O)C=C3[C@@]4(C)C=C(C#N)C(=O)C(C)(C)[C@@H]4CC[C@@]3(C)[C@]1(C)CC2 [BARDOXOLONE METHYL]	Active

System: not listed separately
Experiment: Selectivity index, ratio of IC50 for HAF to IC50 for human HCT116 cells
Format: toxicity
Settings: HAF cells versus HCT116 cells, read-out: Ratio IC50

Structure (SMILES)	selectivity ratio
COc1cc2c(cc1C(=O)Nc1ccc(OC(F)(F)F)cc1)CC[C@H]1C(C)(C)C(=O)C(C#N)=C[C@]21C	5.4 to 10.7
COc1cc2c(cc1C(=O)NNc1ccc(OC(F)(F)F)cc1)CC[C@H]1C(C)(C)C(=O)C(C#N)=C[C@]21C	2.8 to 5
COC(=O)[C@]12CCC(C)(C)C[C@H]1[C@H]1C(=O)C=C3[C@@]4(C)C=C(C#N)C(=O)C(C)(C)[C@@H]4CC[C@@]3(C)[C@]1(C)CC2 [BARDOXOLONE METHYL]	7.2 to 8.4

System: HCT-116
Experiment: Potency index, ratio of PTC-209 IC50 to compound IC50 for antiproliferative activity against human HCT116 cells
Format: functional
Settings: not given

Structure (SMILES)	Ratio IC50
COc1cc2c(cc1C(=O)Nc1ccc(OC(F)(F)F)cc1)CC[C@H]1C(C)(C)C(=O)C(C#N)=C[C@]21C	2

System: not listed separately
Experiment: Selectivity index, ratio of IC50 for HAF to IC50 for human HCT8 cells
Format: toxicity
Settings: HAF cells versus HCT8 cells, read-out: Ratio IC50

Structure (SMILES)	selectivity ratio
COc1cc2c(cc1C(=O)Nc1ccc(OC(F)(F)F)cc1)CC[C@H]1C(C)(C)C(=O)C(C#N)=C[C@]21C	5.4 to 10.7
COc1cc2c(cc1C(=O)NNc1ccc(OC(F)(F)F)cc1)CC[C@H]1C(C)(C)C(=O)C(C#N)=C[C@]21C	2.8 to 5
COC(=O)[C@]12CCC(C)(C)C[C@H]1[C@H]1C(=O)C=C3[C@@]4(C)C=C(C#N)C(=O)C(C)(C)[C@@H]4CC[C@@]3(C)[C@]1(C)CC2 [BARDOXOLONE METHYL]	7.2 to 8.4

System: not listed separately
Experiment: Antiproliferative activity against HAF after 72 hrs by SRB assay
Parameters: species or system Homo sapiens
Settings: not given

Structure (SMILES)	IC50
COc1cc2c(cc1C(=O)Nc1ccc(OC(F)(F)F)cc1)CC[C@H]1C(C)(C)C(=O)C(C#N)=C[C@]21C	3220 nM
COc1cc2c(cc1C(=O)NNc1ccc(OC(F)(F)F)cc1)CC[C@H]1C(C)(C)C(=O)C(C#N)=C[C@]21C	4550 nM
COC(=O)[C@]12CCC(C)(C)C[C@H]1[C@H]1C(=O)C=C3[C@@]4(C)C=C(C#N)C(=O)C(C)(C)[C@@H]4CC[C@@]3(C)[C@]1(C)CC2 [BARDOXOLONE METHYL]	2100 nM

System: HCT-116
Experiment: Antiproliferative activity against human HCT116 cells after 72 hrs by SRB assay
Format: functional, cell-based
Settings: HCT-116, 72 h

Structure (SMILES)	IC50
COc1cc2c(cc1C(=O)Nc1ccc(C(F)(F)F)cc1)CC[C@H]1C(C)(C)C(=O)C(C#N)=C[C@]21C	320 nM
CNC(=O)c1cc2c(cc1OC)[C@@]1(C)C=C(C#N)C(=O)C(C)(C)[C@@H]1CC2	8540 nM
COc1cc2c(cc1C(=O)Nc1ccc(C(C)=O)cc1)CC[C@H]1C(C)(C)C(=O)C(C#N)=C[C@]21C	2100 nM
COC(=O)[C@]12CCC(C)(C)C[C@H]1[C@H]1C(=O)C=C3[C@@]4(C)C=C(C#N)C(=O)C(C)(C)[C@@H]4CC[C@@]3(C)[C@]1(C)CC2 [BARDOXOLONE METHYL]	250 nM

More lines, in order of falling IC50, values ahead:

IC50	Structure (SMILES)
900 nM	COc1cc2c(cc1C(=O)NNc1ccc(OC(F)(F)F)cc1)CC[C@H]1C(C)(C)C(=O)C(C#N)=C[C@]21C
300 nM	COc1cc2c(cc1C(=O)Nc1ccc(OC(F)(F)F)cc1)CC[C@H]1C(C)(C)C(=O)C(C#N)=C[C@]21C
